A short description of data set [1]: Pharmacokinetic evaluation of cinnarizine plasma concentration after i.v. injection. The settings on record: male beagle dog.
Description: (§1) Cinnarizine for i.v. injection was prepared in a 10 mM phosphate buffer solution at pH 4.5 at a concentration of 12.5 mg/10 ml (3.39 mM) along with 37.5 mM sulfobutylether 4 beta-cyclodextrin as a solubilizing excipient. The cyclodextrin solution (10 ml) was prepared first and the pH adjusted to 3.5 with HCl. The cinnarizine was then added and the solution was sonicated for three hours and subsequently stirred overnight. The pH was then adjusted to 4.5 with NaOH along with the addition of 29 mg of NaCl to adjust for isotonicity. The solution was then passed through a 0.22 μM nylon-membrane filter just prior to administration. The prodrug injection was prepared by dissolving 16.97 mg or cinnarizine prodrug in 10 ml of 0.9% NaCl sterile solution (3.39 mM) for injection. The solution was passed through a 0.22 μM nylon-membrane filter just prior to injection.
(§2) The evaluation of the cinnarizine plasma concentration versus time was conducted with a male beagle dog weighing 11.1 kg. The dog received the cinnarizine injection followed by a two-week washout period then received the prodrug injection in an equal molar quantity. Samples were taken from the dog prior to dosing (10 ml blank plasma) and 2, 6, 10, 20, 40 min and 1, 2, 4, 6, 8, 24 hours post-dosing (3 ml each). Blood samples were drawn from either cephalic, saphenous, or jugular vein. The samples were centrifuged for 10 minutes and 1 ml of plasma was measured and frozen at -20° C. prior to sampling by HPLC. The dog received a regular diet between experiments and was fasted the day of the experiment.
(§3) Plasma concentrations of cinnarizine were determined by HPLC with fluorescence detection. To each one milliliter of plasma was added: 100 μL of acetonitrile-H2O (70:30, v/v), containing 40 μg meclizine (internal standard), and 100 μL of 0.5 M HCl. The plasma sample was then vortexed for 30 seconds. One ml of carbon tetrachloride was then combined with the sample for an additional one minute of vortexing. Samples were then centrifuged for ten minutes after which the carbon tetrachloride was removed and evaporated to dryness under a stream of dry nitrogen. The residue was then redissolved in 200 μL of acetonitrile-H2 O (70:30, v/v) prior to sampling by HPLC. The results were calculated from peak area ratios. A six-point standard curve was obtained using the above procedure with addition of cinnarizine concentrations in the range of 5.5 to 550 ng/ml of plasma. A three-point calibration was performed on the day of the study using high, medium and low cinnarizine concentrations. This calibration was used for the quantification of cinnarizine concentration in the samples.
(§4) The HPLC system consisted of a Shimadzu LC-6A pump (Kyoto, Japan), a Rheodyne 7125 injector (Cotati, Calif.), a Shimadzu RF-535 Fluorescence HPLC monitor (Kyoto, Japan), and a Shimadzu CR-601 integrator (Kyoto, Japan). The HPLC conditions were as follows: injection volume, 50 μL; flow rate, 1.5 ml/min; excitation at 260 nm and emission at 315 nm. The stationary phase was a C18 ODS Hypersil reverse phase column (15 cm×4.6 mm i.d., 5 μM). The mobile phase was a 7 to 3 ratio of aceronitrile to buffer, respectively. The buffer consisted of 25 mmole potassium dihydrogen phosphate (adjusted to pH 3.9 with phosphoric acid) and 10 mM tetrabutyl ammonium dihydrogen phosphate.
(§5) Pharmacokinetic analysis was performed on the semilogarithmic plot of cinnarizine plasma concentration versus time post dosing for both the cinnarizine and cinnarizine prodrug injections. […] The equation had the form: C=A1e^-A1t +A2e^-A2t +A3e^-A3t, where t is time. Plasma terminal half life (t1/2) is calculated from t1/2 =0.693/λ3.
The nature of data set [2]: in vivo. Conditions: dog, iv.
Description: as §1, §2, §3, §4, §5
Data set [3] can be described thus: physchem. In kind it is physicochemical. The procedure: Loxamine succinate is obtained from Research Biochemicals Incorporated (Natick, Mass.). […] Each pH solution is a 0.05 M buffered solution with an ionic strength adjusted to μ=0.2 with NaCl. The pH values along with their buffer composition are listed: pH 3.24, HCl/CH3 COONa; pH 3.96 and 4.96, CH3 COOH/CH3 COONa; pH 5.82-7.94, NaH2 PO4 /Na2 HPO4; pH 8.95 and 9.98, H3 BO3 /NaOH. The volume of buffer used in the experiments varies; samples with pH equal to or below 4.96 utilize 2 ml of buffer whereas the higher pH samples has a volume of 5 ml. […] The vials are then capped, sonicated and vortexed prior to submersion in a constant temperature shaking water bath at 25° C. The samples are shaken at a rate of 100 shakes/min. for at least 24 hours. […] The filtrates/supernatants are then appropriately diluted for quantification by HPLC. […] A C-18 reversed phase column (150×4 mm, ODS Hypersil, 5 μm particle size) is used for the analysis. The HPLC assays are carried out using UV detection at 254 nm. The mobile phase consists of acetonitrile and 25 mM of aqueous potassium phosphate monobasic solution adjusted to pH 3.8 with phosphoric acid. 0.15% of triethylamine is contained in the aqueous buffer.

Data set [4] in a line: Preliminary visual solubility estimates of synthesized prodrugs. The class given is physicochemical. The settings on record: preliminary visual estimate, pH 7.4. From the text:
The present prodrugs are designed to increase the aqueous solubility and safety of amine-containing drugs. Preliminary visual solubility estimates for each of the prodrugs are listed below in Table 2.

For data set [5] the following is noted: dog, in vivo.
Description: as §1, §2, §3, §4, §5
Data set [6] in a line: physchem. In kind it is physicochemical. The settings on record: for solubility: 24 h. The protocol: Each pH solution contains 0.05 M buffer with an ionic strength adjusted to μ=0.2 with NaCl. The pH 3 buffer composition is HCl/CH3 COONa; whereas, the pH 7.4 buffer composition is NaH2 PO4 /Na2 HPO4. The volume of buffer used in the experiments is 150 μl. To this is added excess of the loxapine prodrug in one ml glass screw top vials. The vials are then capped, sonicated and vortexed prior to submersion in a constant temperature shaking water bath at 25° C. The samples are shaken at a rate of 100 shakes/min. for at least 24 hours. The suspensions are then placed in a micro centrifuge to precipitate the excess drug. A volume of 50 μl of the supernatant is then appropriately diluted with water for quantification by reverse phase HPLC. […] A C-18 reversed phase column (150×4 mm, ODS Hypersil, 5 μm particle size) is used for the analysis. The HPLC assays are carried out using UV detection at 254 nm. The mobile phase consists of acetonitrile and 25 mM of aqueous potassium phosphate monobasic solution adjusted to pH 3.8 with phosphoric acid. 0.15% of triethylamine is contained in the aqueous buffer. The ratio of organic:aqueous is 32:68. The retention time is 4.2 min. when the flow rate is adjusted to 1 ml/min.

A short description of data set [7]: pKa determination by 31P NMR method. Conditions: 10% d2o in h2o.
A short description of data set [8]: physchem. The settings on record: 10% d2o in h2o.
Data set [9] in a line: physchem. The class given is physicochemical. The settings on record: water. The procedure: A 0.01 M quinuclidine prodrug aqueous solution is titrated using a burette containing a 0.1 N sodium hydroxide volumetric standard solution obtained from Aldrich Chemical Company (Milwaukee, Wis.). […] This experiment is conducted at 25° C.
The first ionization constant, Ka1, is expected to be low and to be of little physiological importance; however, Ka2 is of much greater importance. With this in mind, the second ionization constant (Ka2) for the phosphate monoester promoiety of the quinuclidine was determined by two methods. These methods were potentiometric titration and ^31 P NMR. The potentiometric titration is by far the most traditional and accepted means for estimating pKa values; however, it has one main disadvantage. It requires significant quantities of, difficult to synthesize, prodrug. The quinuclidine prodrug is, by far, the simplest prodrug to synthesize and was chosen for the following experiments for that reason. For the potentiometric titration method, the volume of base added was plotted against the change in pH. This plot allows one to determine the volume of base required to reach the endpoint of the titration.

[10] abbreviates: 0.05 m hcl/ch3coona buffer, pH 3.
Setting [11] is: 0.05 m nah2po4/na2hpo4 buffer, pH 7.4.

≈ marks a conversion by molar mass, not a printed value. Like-named read-outs stand apart in the source and are kept apart here.

As for `C(=C\c1ccccc1)/CN1CCN(C(c2ccccc2)c2ccccc2)CC1` [Cinnarizine], the “observable signs of discomfort or toxicity after injection” value in [1] is “no observable signs of discomfort or toxicity”. For the same compound, in data set [2], the Vd – broadly, the apparent volume that relates the amount in the body to the concentration in plasma or blood – came out at 21.7 L/kg; the clearance (as a rule, a measure of how efficiently the substance is removed, as volume per time) is 19.5 mL/min/kg; the half-life (commonly the time in which the quantity being followed falls by half) is 12 h.

As to `CN1CCN(C2=Nc3ccccc3Oc3ccc(Cl)cc32)CC1` [Loxapine free base, Loxapine], the solubility – broadly, the dissolved amount per volume that the medium holds – worked out at 0.0126 mg/mL (≈ 0.0384 mM) in data set [3] (0.05 m buffer, aqueous buffer) and 8.23 mg/mL (≈ 25.1 mM) in data set [3] (hcl/ch3coona buffer, pH 3.24).

`CCCCc1oc2ccccc2c1C(=O)c1cc(I)c(OCC[N+](CC)(CC)COP(=O)([O-])O)c(I)c1` [amiodarone prodrug]: in data set [4], the solubility was above 5 mg/mL.

Consider `O=P([O-])(O)OC[N+]1(C/C=C/c2ccccc2)CCN(C(c2ccccc2)c2ccccc2)CC1` [cinnarizine prodrug], for which the “observable signs of discomfort or toxicity after injection” value in data set [1] is “no observable signs of discomfort or toxicity”. Also, the “conversion of prodrug to cinnarizine upon intravenous administration” value in data set [5] was “rapidly and quantitatively converted to cinnarizine”. Moreover, in data set [5] (iv), the Cl amounted to 19.5 mL/min/kg, the Vd is on record as 21.2 L/kg and the “t1/2 (plasma terminal half life of cinnarizine)” value is 12.6 h. Besides, in data set [4], the solubility is above 5 mg/mL.

Turning to `C[N+]1(COP(=O)([O-])O)CCN(C2=Nc3ccccc3Oc3ccc(Cl)cc32)CC1` [loxapine prodrug], the results for the solubility in data set [6] (setting [10]), in data set [6] (setting [11]) and in [4] were 290.5 ± 2.9 mg/mL (≈ 664 mM), 648.2 ± 0.6 mg/mL (≈ 1480 mM) and above 600 mg/mL, respectively. Also, the solubility at 24 h in data set [6] (setting [10]) came to 290.5 ± 2.9 mg/mL (≈ 664 mM); in data set [6] (setting [11]), 648.2 ± 0.6 mg/mL (≈ 1480 mM). The “solubility limit relative to the concentration used in the parenteral formulation (50 mg/ml loxapine)” value in data set [6] (without cosolvents) turned out to be 9.7 times. Moreover, in data set [7], the pKa (commonly the pH at which an ionisable group is half protonated) stood at 4.7.

Take `O=P([O-])(O)OC[N+]12CCC(CC1)CC2` [quinuclidine prodrug]: the pKa stood at 4.9 in data set [8] and 5 in [9].
